Results reported in patent US6632803B1, “Pharmaceutical formulations containing voriconazole” (Pfizer Inc, priority 1997, dated 2003).
Values after ≈ are worked out from the molar mass of the structure shown.

Legend:
Type in all cases: physicochemical
log D of voriconazole = test: log D of voriconazole
[1] = aqueous solubility of voriconazole; conditions: aqueous solution, pH 3, aqueous buffer
stability in water = conditions: inactive enantiomer formed from recombination of retro-aldol products of hydrolysis

C[C@@H](c1ncncc1F)[C@](O)(Cn1cncn1)c1ccc(F)cc1F [Voriconazole]
logD (log D of voriconazole): 1.8 | solubility [1]: 200 µg/mL (≈ 573 µM) | stability in water (stability in water): not stable in water
